Source: PMC9080233, “Synthesis and biological evaluation of novel quinolone derivatives dual targeting histone deacetylase and tubulin polymerization as antiproliferative agents” (RSC Advances, 2018)

Tests used:
[1] = target: T1, human recombinant HDAC1 (Homo sapiens, UniProt Q13547); assay: HDAC activity assay (fluorogenic HDAC assay kit), HDAC1; type: biochemical; details: human recombinant HDAC1, 37 °C, 30 min
T1 construct: purchased BPS Bioscience, CA
Description: (§1) HDAC activity was measured using fluorogenic HDACs assay kit (BPS Bioscience, CA) according to the manufacturer's protocol. […] Fluorescence values were measured at an excitation of 350 nm and an emission of 440 nm using SpectraMax M2 microplate reader. IC50 values were calculated using Origin software. IC50 values were determined using nonlinear regression analysis.

[2] = target: T2, human recombinant HDAC2 (Homo sapiens, UniProt Q92769); assay: HDAC activity assay (fluorogenic HDAC assay kit), HDAC2; type: biochemical; details: human recombinant HDAC2, 37 °C, 30 min
T2 construct: purchased BPS Bioscience, CA
T2 sequence (Q92769 whole entry): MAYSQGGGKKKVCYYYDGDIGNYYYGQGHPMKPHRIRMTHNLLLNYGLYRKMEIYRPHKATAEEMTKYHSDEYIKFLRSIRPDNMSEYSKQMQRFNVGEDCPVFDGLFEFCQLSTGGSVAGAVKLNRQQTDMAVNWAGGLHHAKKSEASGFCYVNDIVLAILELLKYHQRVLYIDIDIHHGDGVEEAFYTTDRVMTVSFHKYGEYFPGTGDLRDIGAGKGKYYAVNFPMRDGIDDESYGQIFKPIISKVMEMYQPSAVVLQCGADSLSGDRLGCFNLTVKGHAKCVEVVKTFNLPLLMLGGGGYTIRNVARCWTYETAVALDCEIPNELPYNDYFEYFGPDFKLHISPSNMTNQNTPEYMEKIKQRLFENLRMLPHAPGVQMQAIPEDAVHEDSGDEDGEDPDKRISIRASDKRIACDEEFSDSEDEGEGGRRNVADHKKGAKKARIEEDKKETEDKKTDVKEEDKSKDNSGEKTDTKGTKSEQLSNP
Description: as §1

[3] = target: T3, human recombinant HDAC6 (Homo sapiens, UniProt Q9UBN7); assay: HDAC activity assay (fluorogenic HDAC assay kit), HDAC6; type: biochemical; details: for IC50: human recombinant HDAC6, 37 °C, 30 min; for Selectivity index HDAC6/1: ratio of IC50 HDAC1 to IC50 HDAC6; for Selectivity index HDAC6/2: ratio of IC50 HDAC2 to IC50 HDAC6;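 as to all read-outs here: underlying HDAC activity read as fluorescence, excitation 350 nm and emission 440 nm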
T3 construct: purchased BPS Bioscience, CA
T3 sequence (Q9UBN7 1-1215): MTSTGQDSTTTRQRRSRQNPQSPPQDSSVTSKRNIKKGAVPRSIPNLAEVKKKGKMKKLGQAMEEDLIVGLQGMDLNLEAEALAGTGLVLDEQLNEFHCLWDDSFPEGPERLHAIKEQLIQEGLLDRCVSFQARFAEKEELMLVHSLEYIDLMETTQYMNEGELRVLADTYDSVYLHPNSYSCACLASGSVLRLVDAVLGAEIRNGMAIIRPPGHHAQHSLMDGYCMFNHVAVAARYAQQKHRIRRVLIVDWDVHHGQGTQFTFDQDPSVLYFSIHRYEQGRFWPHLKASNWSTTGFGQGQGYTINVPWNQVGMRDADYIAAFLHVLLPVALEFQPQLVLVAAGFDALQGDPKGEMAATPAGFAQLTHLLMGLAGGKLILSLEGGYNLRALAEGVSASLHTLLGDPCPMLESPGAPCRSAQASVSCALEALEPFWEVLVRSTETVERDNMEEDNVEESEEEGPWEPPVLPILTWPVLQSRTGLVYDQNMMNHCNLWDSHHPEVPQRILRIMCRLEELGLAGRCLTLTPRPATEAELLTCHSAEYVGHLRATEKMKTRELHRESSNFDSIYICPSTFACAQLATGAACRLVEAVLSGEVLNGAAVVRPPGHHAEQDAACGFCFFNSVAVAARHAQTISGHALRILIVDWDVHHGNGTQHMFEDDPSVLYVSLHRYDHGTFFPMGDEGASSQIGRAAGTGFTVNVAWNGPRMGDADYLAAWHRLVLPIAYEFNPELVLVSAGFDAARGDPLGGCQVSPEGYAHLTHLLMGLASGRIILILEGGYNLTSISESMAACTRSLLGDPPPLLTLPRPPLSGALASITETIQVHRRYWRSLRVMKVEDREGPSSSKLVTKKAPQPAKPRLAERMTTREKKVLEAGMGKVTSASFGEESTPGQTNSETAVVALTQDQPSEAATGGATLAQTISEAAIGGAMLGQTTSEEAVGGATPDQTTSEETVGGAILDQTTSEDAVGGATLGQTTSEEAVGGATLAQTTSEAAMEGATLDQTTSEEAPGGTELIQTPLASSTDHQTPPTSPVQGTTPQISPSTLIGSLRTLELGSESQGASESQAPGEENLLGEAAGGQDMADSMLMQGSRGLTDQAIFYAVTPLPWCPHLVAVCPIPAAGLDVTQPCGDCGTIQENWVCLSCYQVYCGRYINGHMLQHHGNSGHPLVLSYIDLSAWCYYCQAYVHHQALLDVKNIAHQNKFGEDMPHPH
Description: as §1

[4] = test system: human lung adenocarcinoma cells A549; assay: Antiproliferative activity, CCK-8 assay, A549; type: cell-based; details: CCK-8, 72 hours, mean ± SD
Description: (§2) Antitumor activities in vitro of synthetic compounds were measured using CCK-8 Assay Kit (BPS Bioscience, CA) according to the manufacturer's protocol. […] Control cells were treated with serum free medium. Then CCK-8 solution was added to each well to determine cell viability. The IC50 values were calculated according to the dose-dependent curves (Origin software). IC50 values were determined using nonlinear regression analysis.

[5] = test system: liver cancer cells HepG2; assay: Antiproliferative activity, CCK-8 assay, HepG2; type: cell-based; details: Homo sapiens, CCK-8, 72 hours, mean ± SD
Description: as §2

[6] = test system: breast cancer cells MCF-7; assay: Antiproliferative activity, CCK-8 assay, MCF-7; type: cell-based; details: Homo sapiens, MCF7; CCK-8, 72 hours; mean ± SD
Description: as §2

[7] = test system: prostate cancer cells PC-3; assay: Antiproliferative activity, CCK-8 assay, PC-3; type: cell-based; details: Homo sapiens; CCK-8, 72 hours; mean ± SD
Description: as §2

[8] = test system: human cervical carcinoma cells HeLa; assay: Antiproliferative activity, CCK-8 assay, HeLa; type: cell-based; details: CCK-8, 72 hours, mean ± SD, read-out: IC50 HeLa
Description: Antitumor activities in vitro of synthetic compounds were measured using CCK-8 Assay Kit (BPS Bioscience, CA) according to the manufacturer's protocol. Cells were plated into 96-well plates with appropriate test compounds for 72 hours. Control cells were treated with serum free medium. Then CCK-8 solution was added to each well to determine cell viability. The IC50 values were calculated according to the dose-dependent curves (Origin software). IC50 values were determined using nonlinear regression analysis.

[9] = test system: healthy MCF-10A cells; assay: Toxicity to healthy cells, CCK-8 assay, MCF-10A; type: cell-based; details: Homo sapiens, MCF-10A; healthy cells, CCK-8, 72 hours; >100 = not determinable up to highest concentrations tested
Description: as §2

T1 sequence (Q13547 whole entry): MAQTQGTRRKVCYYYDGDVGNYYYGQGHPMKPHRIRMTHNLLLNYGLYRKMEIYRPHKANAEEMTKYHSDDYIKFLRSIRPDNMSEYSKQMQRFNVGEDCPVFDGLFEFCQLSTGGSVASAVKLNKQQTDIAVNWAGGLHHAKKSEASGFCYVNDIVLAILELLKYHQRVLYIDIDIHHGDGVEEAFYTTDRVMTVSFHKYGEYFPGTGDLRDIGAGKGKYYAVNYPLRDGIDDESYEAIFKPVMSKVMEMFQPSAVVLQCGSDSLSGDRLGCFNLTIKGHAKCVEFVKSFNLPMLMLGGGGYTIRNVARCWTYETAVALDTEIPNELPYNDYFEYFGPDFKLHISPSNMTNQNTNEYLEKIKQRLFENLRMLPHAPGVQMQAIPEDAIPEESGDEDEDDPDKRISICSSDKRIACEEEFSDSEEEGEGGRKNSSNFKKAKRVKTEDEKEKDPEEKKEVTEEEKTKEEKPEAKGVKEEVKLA

## C[C@H]1COc2c(N3CCN(C)CC3)c(F)cc3c(=O)c(C(=O)OCc4cn(CCCCCC(=O)O)nn4)cn1c23 [Compound 6a, (S)-6-(4-(((9-fluoro-3-methyl-10-(4-methylpiperazin-1-yl)-7-oxo-3,7-dihydro-2H-[1,4]oxazino[2,3,4-ij]quinoline-6-carbonyl)oxy)methyl)-1H-1,2,3-triazol-1-yl)hexanoic acid]
[1]
  IC50: 8.2 ± 1.08 µM
[2]
  IC50: 10.4 ± 1.87 µM
[3]
  IC50: 2100 ± 680 nM
  Selectivity index HDAC6/1: 3.9
  Selectivity index HDAC6/2: 4.9
[4]
  IC50: 14.2 ± 1.28 µM
[5]
  IC50: 13.4 ± 1.36 µM
[6]
  IC50: 10.3 ± 1.12 µM
[7]
  IC50: 16.5 ± 1.63 µM
[8]
  IC50: 12.3 ± 1.16 µM
[9]
  IC50: > 100 µM
other
  melting point: 175 to 178 °C

## C[C@H]1COc2c(N3CCN(C)CC3)c(F)cc3c(=O)c(C(=O)OCc4cn(CCCCCCC(=O)O)nn4)cn1c23 [Compound 6b, (S)-7-(4-(((9-fluoro-3-methyl-10-(4-methylpiperazin-1-yl)-7-oxo-3,7-dihydro-2H-[1,4]oxazino[2,3,4-ij]quinoline-6-carbonyl)oxy)methyl)-1H-1,2,3-triazol-1-yl)heptanoic acid]
[1]
  IC50: 5.7 ± 0.71 µM
[2]
  IC50: 6.2 ± 0.92 µM
[3]
  IC50: 1400 ± 350 nM
  Selectivity index HDAC6/1: 4.1
  Selectivity index HDAC6/2: 4.4
[4]
  IC50: 10.7 ± 1.08 µM
[5]
  IC50: 10.5 ± 1.17 µM
[6]
  IC50: 8.9 ± 0.54 µM
[7]
  IC50: 12.9 ± 1.25 µM
[8]
  IC50: 9.7 ± 0.83 µM
[9]
  IC50: > 100 µM
other
  melting point: 183 to 185 °C

## C[C@H]1COc2c(N3CCN(C)CC3)c(F)cc3c(=O)c(C(=O)OCc4cn(CCCCCCCC(=O)O)nn4)cn1c23 [Compound 6c, (S)-8-(4-(((9-fluoro-3-methyl-10-(4-methylpiperazin-1-yl)-7-oxo-3,7-dihydro-2H-[1,4]oxazino[2,3,4-ij]quinoline-6-carbonyl)oxy)methyl)-1H-1,2,3-triazol-1-yl)octanoic acid]
[1]
  IC50: 6.9 ± 0.83 µM
[2]
  IC50: 7.9 ± 0.76 µM
[3]
  IC50: 4700 ± 510 nM
  Selectivity index HDAC6/1: 1.5
  Selectivity index HDAC6/2: 1.7
[4]
  IC50: 13.6 ± 1.16 µM
[5]
  IC50: 12.7 ± 1.09 µM
[6]
  IC50: 10.5 ± 1.22 µM
[7]
  IC50: 15.8 ± 1.43 µM
[8]
  IC50: 14.6 ± 1.08 µM
[9]
  IC50: > 100 µM
other
  melting point: 196 to 199 °C

## C[C@H]1COc2c(N3CCN(C)CC3)c(F)cc3c(=O)c(C(=O)NCc4cn(CCCCCC(=O)O)nn4)cn1c23 [Compound 7a, (S)-6-(4-((9-fluoro-3-methyl-10-(4-methylpiperazin-1-yl)-7-oxo-3,7-dihydro-2H-[1,4]oxazino[2,3,4-ij]quinoline-6-carboxamido)methyl)-1H-1,2,3-triazol-1-yl)hexanoic acid]
[1]
  IC50: 4.6 ± 0.52 µM
[2]
  IC50: 7.3 ± 0.93 µM
[3]
  IC50: 1900 ± 470 nM
  Selectivity index HDAC6/1: 2.4
  Selectivity index HDAC6/2: 3.8
[4]
  IC50: 12.8 ± 1.33 µM
[5]
  IC50: 14.8 ± 1.27 µM
[6]
  IC50: 9.7 ± 1.04 µM
[7]
  IC50: 15.8 ± 1.48 µM
[8]
  IC50: 13.5 ± 1.31 µM
[9]
  IC50: > 100 µM
other
  melting point: 179 to 182 °C

## C[C@H]1COc2c(N3CCN(C)CC3)c(F)cc3c(=O)c(C(=O)NCc4cn(CCCCCCCC(=O)O)nn4)cn1c23 [Compound 7c, (S)-8-(4-((9-fluoro-3-methyl-10-(4-methylpiperazin-1-yl)-7-oxo-3,7-dihydro-2H-[1,4]oxazino[2,3,4-ij]quinoline-6-carboxamido)methyl)-1H-1,2,3-triazol-1-yl)octanoic acid]
[1]
  IC50: 3.8 ± 0.46 µM
[2]
  IC50: 6.9 ± 0.55 µM
[3]
  IC50: 2700 ± 360 nM
  Selectivity index HDAC6/1: 1.4
  Selectivity index HDAC6/2: 2.6
[4]
  IC50: 11.9 ± 1.06 µM
[5]
  IC50: 11.3 ± 1.24 µM
[6]
  IC50: 12.7 ± 1.18 µM
[7]
  IC50: 13.6 ± 1.29 µM
[8]
  IC50: 10.6 ± 0.24 µM
[9]
  IC50: > 100 µM
other
  melting point: 203 to 205 °C
